From patent US6117859A, “Method of relieving chronic inflammation by using 5-alkylsulfonylsalicylanilides” (The Research Foundation of State University of New York, priority 1999, dated 2000)
“Also recorded” adds a separate entry of the source.

Key:
myeloperoxidase (MPO) = assay: Myeloperoxidase (MPO) activity in ear biopsies, acute TPA mouse ear assay; type: in vivo
Source text: (§1) The anti-inflammatory effect of selected compounds of this invention were compared to those of Triclosan™ and hydrocortisone in a modified […] (TPA) mouse ear inflammation assay. TPA was used as an inflammogen rather than croton oil because TPA gives a well characterized inflammatory response at very low concentrations. […] This model can therefore be used to study the pharmacokinetics, clinical efficacy and adverse side effects of anti-inflammatory agents. To quantitate inflammation, ear punches from treated animals were used to measure increased ear mass (edema) and myeloperoxidase (MPO) activity. For the inhibition studies, ear biopsies were weighed six hours after treatment with TPA and the simultaneous application of the compound of the present invention. All the compounds were diluted in acetone. Following this, the biopsies were frozen and subsequently used to measure inhibition of MPO activity, an estimate of polymorphonuclear (PMN) […] activity in the affected area. Percent inhibition of edema was calculated as [c-t]/c x 100, where c and t are increases in ear weight in control and treated mice, respectively.
As a confirmation of the anti-inflammatory activity and in an attempt to further define the mechanism of inhibition produced by the alkylsulfonylsalicylanilides, MPO activity was measured in representative ear biopsies. The enzyme was extracted from the tissue by using a combination of homogenization in the presence of a detergent, freezing and thawing, and sonication. The change in absorbance was measured with time using o-dianisidine and H2 O2 as the substrate in an automated plate reader. As shown below, TPA-induced increase in MPO was inhibited in TMF-12 treated ears at a dose approximately 10-fold less than that which inhibited edema.

[1] = Solubility of representative compounds in various solvent systems; type: physicochemical
Protocol: The solubility of representative compounds of this invention in various solvent systems was determined. The solvents included ethanol, propylene glycol, SLS, Tween 80™ and combinations thereof.

Lipophilicity = type: physicochemical; settings: compared with AMCF3-8
Source text: By the term "partition coefficient" as used herein for the purposes of specification and claims is meant the log10 P where P is the ratio of the molar concentrations of the compositions of the composition in octanol-water system. Partition coefficient is a measure of the lipophilic character of the compound. A partition coefficient of 4 therefore means that the ratio of the concentration of the composition in octanol to the concentration in water is 10^4 or 10,000 to 1.

[2] = system: TPA induced mouse ear edema; assay: Acute TPA mouse ear inflammation assay, edema (ear weight); type: in vivo
Source text: as §1
Initially a dose-response curve for TPA-induced mouse ear edema was generated in order to determine the concentration of TPA to be employed in the inhibition studies. TPA produced a theoretical dose-response curve for edema with an ED50 of 80 ng/ear and an ED90 of 200 ng/ear in two separate experiments. ED50 is the dose at which 50% of the maximum effect was observed while ED90 is the dose at which 90% of the maximum effect was observed. […] The ED50 values for the compounds tested are as follows: […]

Question: For `CCCCCCCCCCCCS(=O)(=O)c1ccc(O)c(C(=O)Nc2cccc(C(F)(F)F)c2)c1` [TMF-12], which “MPO Activity” value (myeloperoxidase (MPO); TMF-12 0.8 mg/20 ml) is on record?
Answer: 590.2 D OD/min

Question: And the “MPO Activity” value (myeloperoxidase (MPO); TMF-12 1.24 mg/20 ml)?
Answer: 327.3 D OD/min

Question: What about the “MPO Activity” value (myeloperoxidase (MPO); TMF-12 8 mg/20 ml) of the same compound?
Answer: 56.5 D OD/min

Question: And the “MPO Activity” value (myeloperoxidase (MPO); TMF-12 12.4 mg/20 ml)?
Answer: 54.8 D OD/min

Question: And the “MPO Activity” value (myeloperoxidase (MPO); TMF-12 80 mg/20 ml)?
Answer: 27.6 D OD/min

Question: And the “MPO Activity” value (myeloperoxidase (MPO); TMF-12 124 mg/20 ml)?
Answer: 21 D OD/min

Question: What about the “Dose inhibiting MPO increase, fold less than dose inhibiting edema” value (myeloperoxidase (MPO); compared with edema inhibition) of the same compound?
Answer: approximately 10 fold

Question: What about the solubility ([1]; +0.5% tween 80) of the same compound?
Answer: 1340 µg/mL

Question: What about the solubility ([1]; +1% sls) of the same compound?
Answer: 1660 µg/mL

Question: And the solubility ([1]; +1.5% tween 80)?
Answer: 4290 µg/mL

Question: What about the solubility ([1]; +2% SLS + 0.5% Tween 80) of the same compound?
Answer: 3540 µg/mL

Question: What about the solubility ([1]; +2% SLS + 1.0% Tween 80) of the same compound?
Answer: 4010 µg/mL

Question: What about the solubility ([1]; +2% SLS + 2.0% Tween 80) of the same compound?
Answer: 5860 µg/mL

Question: And the solubility ([1]; +2% sls)?
Answer: 2930 µg/mL

Question: And the solubility ([1]; +3.0% tween 80)?
Answer: 8340 µg/mL

Question: What about the solubility ([1]; +4% sls) of the same compound?
Answer: 5740 µg/mL

Question: And the solubility ([1]; aqueous buffer, pH 10 Na-buffer @ 22° C.)?
Answer: < 0.1 µg/mL

Question: And the “Solubility in anionic and nonionic surfactant solutions relative to AMCF3-8” value ([1]; compared with AMCF3-8)?
Answer: greater solubility than AMCF3-8

Question: What about the solubility ([1]; organic solvent or mixture, Ethanol, 22° C.) of the same compound?
Answer: 13600 µg/mL

Question: What about the solubility ([1]; organic solvent or mixture, Propylene Glycol @ 20° C.) of the same compound?
Answer: 6660 µg/mL

Question: And the solubility ([1]; ph 10 na-buffer +0.5% sls, pH 10 Na-buffer @ 22° C. +0.5% SLS)?
Answer: 1280 µg/mL

Question: And the “Lipophilicity relative to AMCF3-8” value (Lipophilicity)?
Answer: more lipophilic than AMCF3-8

Question: What about the ID50 edema ([2]; acute assay) of the same compound?
Answer: 18 μg/ear

Question: What about the “Inhibition of TPA induced mouse ear edema (in words)” value ([2]; acute assay) of the same compound?
Answer: inhibited TPA induced mouse ear edema in a dose-dependent fashion

Question: What about the “Relative anti-inflammatory potency (in words)” value ([2]; acute assay) of the same compound?
Answer: most potent of all; also recorded: more potent than AMCF3-8

Question: And the “Relative anti-inflammatory potency (in words)” value ([2]; acute assay, listed as Trifluorosal)?
Answer: the most potent 5-(n-alkylsulfonyl)salicylanilide in this assay

Question: What about the “Potency relative to Salifluor” value ([2]; acute edema assay) of the same compound?
Answer: ten
